PubChem BioAssay (NCI)
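Cultured in 96-well plates, cells were exposed to test compound for 48 hours across five concentrations. At the TGI there is no net growth.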

Columns and labels:
Test in all cases: inhibition of tumour cell growth, NCI panel, 48 h
SNB-19 CNS = test system: SNB-19 CNS
HCC-2998 colon = test system: HCC-2998 colon
CAKI-1 renal = test system: CAKI-1 renal
UACC-257 melanoma = test system: UACC-257 melanoma
OVCAR-8 ovarian = test system: OVCAR-8 ovarian
NCI-H23 lung = test system: NCI-H23 lung
HCT-116 colon = test system: HCT-116 colon
HS 578T breast = test system: HS 578T breast
UO-31 renal = test system: UO-31 renal
HL-60(TB) leukemia = test system: HL-60(TB) leukemia
786-0 renal = test system: 786-0 renal
U251 CNS = test system: U251 CNS
SNB-75 CNS = test system: SNB-75 CNS
MDA-MB-435 = test system: MDA-MB-435
RXF 393 renal = test system: RXF 393 renal
NCI/ADR-RES ovarian = test system: NCI/ADR-RES ovarian
CCRF-CEM leukemia = test system: CCRF-CEM leukemia
OVCAR-4 ovarian = test system: OVCAR-4 ovarian
UACC-62 melanoma = test system: UACC-62 melanoma
DU-145 prostate = test system: DU-145 prostate
ACHN renal = test system: ACHN renal
RPMI-8226 leukemia = test system: RPMI-8226 leukemia
K-562 leukemia = test system: K-562 leukemia
EKVX NSCLC = test system: EKVX NSCLC
NCI-H460 lung = test system: NCI-H460 lung
M14 melanoma = test system: M14 melanoma
HCT-15 colon = test system: HCT-15 colon
OVCAR-3 ovarian = test system: OVCAR-3 ovarian
MALME-3M melanoma = test system: MALME-3M melanoma
SR leukemia = test system: SR leukemia
HT29 colon = test system: HT29 colon
T-47D breast = test system: T-47D breast
SK-MEL-28 melanoma = test system: SK-MEL-28 melanoma
A549 NSCLC = test system: A549 NSCLC
SN12C renal = test system: SN12C renal
SW-620 colon = test system: SW-620 colon
SK-OV-3 ovarian = test system: SK-OV-3 ovarian
NCI-H226 lung = test system: NCI-H226 lung
SK-MEL-2 melanoma = test system: SK-MEL-2 melanoma
KM12 colon = test system: KM12 colon
MOLT-4 leukemia = test system: MOLT-4 leukemia
SK-MEL-5 melanoma = test system: SK-MEL-5 melanoma
HOP-62 NSCLC = test system: HOP-62 NSCLC
MDA-N = test system: MDA-N
MDA-MB-231 breast = test system: MDA-MB-231 breast
SF-268 CNS = test system: SF-268 CNS
LOX IMVI melanoma = test system: LOX IMVI melanoma
OVCAR-5 ovarian = test system: OVCAR-5 ovarian
HOP-92 NSCLC = test system: HOP-92 NSCLC
IGROV1 ovarian = test system: IGROV1 ovarian
SF-539 CNS = test system: SF-539 CNS
TK-10 renal = test system: TK-10 renal
SF-295 CNS = test system: SF-295 CNS
NCI-H522 lung = test system: NCI-H522 lung
A498 renal = test system: A498 renal
MCF7 breast = test system: MCF7 breast
BT-549 breast = test system: BT-549 breast
COLO 205 colon = test system: COLO 205 colon
PC-3 prostate = test system: PC-3 prostate

NC(=S)NNC(=S)NC(=O)c1ccco1
TGI (SNB-19 CNS): > 10 µM | TGI (HCC-2998 colon): > 10 µM | TGI (CAKI-1 renal): > 10 µM | TGI (UACC-257 melanoma): > 10 µM | TGI (OVCAR-8 ovarian): > 10 µM | TGI (NCI-H23 lung): > 10 µM | TGI (HCT-116 colon): > 10 µM | TGI (HS 578T breast): > 10 µM | TGI (UO-31 renal): > 10 µM | TGI (HL-60(TB) leukemia): > 10 µM | TGI (786-0 renal): > 10 µM | TGI (U251 CNS): > 10 µM | TGI (SNB-75 CNS): > 10 µM | TGI (MDA-MB-435): > 10 µM | TGI (RXF 393 renal): > 10 µM | TGI (NCI/ADR-RES ovarian): > 10 µM | TGI (CCRF-CEM leukemia): > 10 µM | TGI (OVCAR-4 ovarian): > 10 µM | TGI (UACC-62 melanoma): > 10 µM | TGI (DU-145 prostate): > 10 µM | TGI (ACHN renal): > 10 µM | TGI (RPMI-8226 leukemia): > 10 µM | TGI (K-562 leukemia): > 10 µM | TGI (EKVX NSCLC): > 10 µM | TGI (NCI-H460 lung): > 10 µM | TGI (M14 melanoma): > 10 µM | TGI (HCT-15 colon): > 10 µM | TGI (OVCAR-3 ovarian): > 10 µM | TGI (MALME-3M melanoma): > 10 µM | TGI (SR leukemia): > 10 µM | TGI (HT29 colon): > 10 µM | TGI (T-47D breast): > 10 µM | TGI (SK-MEL-28 melanoma): > 10 µM | TGI (A549 NSCLC): > 10 µM | TGI (SN12C renal): > 10 µM | TGI (SW-620 colon): > 10 µM | TGI (SK-OV-3 ovarian): > 10 µM | TGI (NCI-H226 lung): > 10 µM | TGI (SK-MEL-2 melanoma): > 10 µM | TGI (KM12 colon): > 10 µM | TGI (MOLT-4 leukemia): > 10 µM | TGI (SK-MEL-5 melanoma): > 10 µM | TGI (HOP-62 NSCLC): > 10 µM | TGI (MDA-N): > 10 µM | TGI (MDA-MB-231 breast): > 10 µM | TGI (SF-268 CNS): > 10 µM | TGI (LOX IMVI melanoma): > 10 µM | TGI (OVCAR-5 ovarian): > 10 µM | TGI (HOP-92 NSCLC): > 10 µM | TGI (IGROV1 ovarian): > 10 µM

CN(C)CCNC(=O)c1cc(NC(=O)c2cc(NC(=O)CC/C=C3/[C@@H]4CC[C@H]3N=N4)cn2C)cn1C
TGI (SNB-19 CNS): > 100 µM | TGI (SF-539 CNS): > 100 µM | TGI (HCC-2998 colon): > 100 µM | TGI (CAKI-1 renal): > 100 µM | TGI (UACC-257 melanoma): > 100 µM | TGI (OVCAR-8 ovarian): > 100 µM | TGI (NCI-H23 lung): > 100 µM | TGI (HCT-116 colon): > 100 µM | TGI (HS 578T breast): > 100 µM | TGI (UO-31 renal): > 100 µM | TGI (HL-60(TB) leukemia): > 100 µM | TGI (786-0 renal): > 100 µM | TGI (U251 CNS): > 100 µM | TGI (TK-10 renal): > 100 µM | TGI (SF-295 CNS): > 100 µM | TGI (SNB-75 CNS): > 100 µM | TGI (MDA-MB-435): > 100 µM | TGI (RXF 393 renal): > 100 µM | TGI (NCI/ADR-RES ovarian): > 100 µM | TGI (CCRF-CEM leukemia): > 100 µM | TGI (OVCAR-4 ovarian): > 100 µM | TGI (DU-145 prostate): > 100 µM | TGI (NCI-H522 lung): > 100 µM | TGI (ACHN renal): > 100 µM | TGI (RPMI-8226 leukemia): > 100 µM | TGI (K-562 leukemia): > 100 µM | TGI (EKVX NSCLC): > 100 µM | TGI (NCI-H460 lung): > 100 µM | TGI (M14 melanoma): > 100 µM | TGI (A498 renal): > 100 µM | TGI (HCT-15 colon): > 100 µM | TGI (OVCAR-3 ovarian): > 100 µM | TGI (MCF7 breast): > 100 µM | TGI (MALME-3M melanoma): > 100 µM | TGI (SR leukemia): > 100 µM | TGI (HT29 colon): > 100 µM | TGI (SK-MEL-28 melanoma): > 100 µM | TGI (A549 NSCLC): > 100 µM | TGI (SN12C renal): > 100 µM | TGI (BT-549 breast): > 100 µM | TGI (SW-620 colon): > 100 µM | TGI (NCI-H226 lung): > 100 µM | TGI (SK-MEL-2 melanoma): > 100 µM | TGI (KM12 colon): > 100 µM | TGI (MOLT-4 leukemia): > 100 µM | TGI (SK-MEL-5 melanoma): > 100 µM | TGI (HOP-62 NSCLC): > 100 µM | TGI (MDA-N): > 100 µM | TGI (MDA-MB-231 breast): > 100 µM | TGI (SF-268 CNS): > 100 µM | TGI (LOX IMVI melanoma): > 100 µM | TGI (COLO 205 colon): > 100 µM | TGI (PC-3 prostate): > 100 µM | TGI (OVCAR-5 ovarian): > 100 µM | TGI (HOP-92 NSCLC): > 100 µM | TGI (IGROV1 ovarian): > 100 µM
